Experimental data: ChEMBL document CHEMBL1149498, “Uncompetitive antagonism of AMPA receptors: Mechanistic insights from studies of polyamine toxin derivatives” (J Med Chem, 2006)

Experiments:
[1] = target: T1, Glutamate receptor 1 (Rattus norvegicus, UniProt P19490); test: Antagonist activity against rat GluR1 flop expressed in Xenopus laevis oocyte assessed as inhibition of glutamate-induced current at holding potential -100 mV by two electrode voltage clamp method; format: functional
[2] = target: T1, Glutamate receptor 1; test: Antagonist activity against rat GluR1 flop expressed in Xenopus laevis oocyte assessed as inhibition of glutamate-induced current at holding potential -60 mV by two electrode voltage clamp method; format: functional
[3] = target: T2, Glutamate receptor ionotropic, AMPA (Rattus norvegicus, UniProt P19490+P19491+P19492+P19493); test: Antagonist activity against rat brain AMPA receptor expressed in Xenopus laevis oocyte assessed as inhibition of kainate-induced current at holding potential -80 mV by two electrode voltage clamp method; format: functional
[4] = target: T1, Glutamate receptor 1; test: Antagonist activity against rat GluR1 flop expressed in Xenopus laevis oocyte assessed as inhibition of glutamate-induced current at holding potential -80 mV by two electrode voltage clamp method; format: functional
[5] = target: T2, Glutamate receptor ionotropic, AMPA; test: Antagonist activity against rat brain AMPA receptor expressed in Xenopus laevis oocyte assessed as inhibition of kainate-induced current by two electrode voltage clamp method at holding potential -100 mV
[6] = target: T2, Glutamate receptor ionotropic, AMPA; test: Antagonist activity against rat brain AMPA receptor expressed in Xenopus laevis oocyte assessed as inhibition of kainate-induced current by two electrode voltage clamp method at holding potential -60 mV
[7] = target: T2, Glutamate receptor ionotropic, AMPA; test: Antagonist activity against rat brain AMPA receptor expressed in Xenopus laevis oocyte assessed as inhibition of kainate-induced current by two electrode voltage clamp method at holding potential -40 mV

T1 sequence (P19490 whole entry): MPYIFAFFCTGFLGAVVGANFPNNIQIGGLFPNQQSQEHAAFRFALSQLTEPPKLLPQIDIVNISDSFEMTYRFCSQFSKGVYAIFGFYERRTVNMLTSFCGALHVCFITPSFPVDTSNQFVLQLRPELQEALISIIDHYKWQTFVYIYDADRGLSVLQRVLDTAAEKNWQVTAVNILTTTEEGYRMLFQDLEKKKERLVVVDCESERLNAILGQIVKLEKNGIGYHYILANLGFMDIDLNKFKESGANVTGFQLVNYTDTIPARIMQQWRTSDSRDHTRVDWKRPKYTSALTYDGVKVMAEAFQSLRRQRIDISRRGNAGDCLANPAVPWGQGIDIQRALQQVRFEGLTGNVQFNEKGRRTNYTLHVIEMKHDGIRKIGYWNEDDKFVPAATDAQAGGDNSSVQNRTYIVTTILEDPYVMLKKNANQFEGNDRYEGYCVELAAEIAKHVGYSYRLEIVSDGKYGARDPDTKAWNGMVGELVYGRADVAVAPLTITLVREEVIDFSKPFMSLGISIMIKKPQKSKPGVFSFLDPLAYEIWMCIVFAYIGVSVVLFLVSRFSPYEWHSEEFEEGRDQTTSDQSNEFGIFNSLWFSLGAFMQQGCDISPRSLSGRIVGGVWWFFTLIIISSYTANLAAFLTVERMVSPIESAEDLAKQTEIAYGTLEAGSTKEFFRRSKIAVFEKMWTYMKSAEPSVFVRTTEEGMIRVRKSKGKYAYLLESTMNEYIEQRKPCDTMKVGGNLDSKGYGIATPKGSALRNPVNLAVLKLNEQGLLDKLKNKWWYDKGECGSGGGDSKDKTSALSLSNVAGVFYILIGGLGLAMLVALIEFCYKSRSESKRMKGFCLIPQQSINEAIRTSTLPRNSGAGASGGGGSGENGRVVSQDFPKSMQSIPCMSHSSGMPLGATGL

Structure (SMILES)	Ki [1] [nM]	Ki [2] [nM]	IC50 [3] [nM]	Ki [4] [nM]	IC50 [5] [nM]	IC50 [6] [nM]	IC50 [7] [nM]
CCCC(=O)N[C@@H](Cc1ccc(O)cc1)C(=O)NCCCCCNCCCCCN	13	460	207	95	–	–	–
CCCC(=O)N[C@@H](Cc1ccc(O)cc1)C(=O)NCCCCNCCCCCCN	–	–	324	53	–	–	–
CCCC(=O)N[C@@H](Cc1ccc(O)cc1)C(=O)NCCCCCNCCCCCCCCN	37	2300	160	330	–	–	–
CCCC(=O)N[C@@H](Cc1ccc(O)cc1)C(=O)NCCCCCNCCCCCCCCCCCCN	77	3100	–	480	–	–	–
CCCC(=O)N[C@@H](Cc1ccc(O)cc1)C(=O)NCCNCCCCCCN	–	–	310	208	–	–	–
CCCC(=O)N[C@@H](Cc1ccc(O)cc1)C(=O)NCCCCCNCCCN	14	270	1100	63	–	–	–
CCCC(=O)N[C@@H](Cc1ccc(O)cc1)C(=O)NCCCCNCCCCCCCN	–	–	16	38	3.3	60.1	176
CCCC(=O)N[C@@H](Cc1ccc(O)cc1)C(=O)NCCCCCCCCCNCCCCCCN	–	–	86	37	–	–	–
CCCC(=O)N[C@@H](Cc1ccc(O)cc1)C(=O)NCCCCCCCNCCCCN	–	–	138	168	–	–	–
CCCC(=O)N[C@@H](Cc1ccc(O)cc1)C(=O)NCCCCCNCCCCCCN	10	660	87	3	–	–	–
CCCC(=O)N[C@@H](Cc1ccc(O)cc1)C(=O)NCCCCCCCCNCCCCCCN	–	–	25	77	–	–	–
CCCC(=O)N[C@@H](Cc1ccc(O)cc1)C(=O)NCCCCCNCCN	140	1500	12300	410	–	–	–
CCCC(=O)N[C@@H](Cc1ccc(O)cc1)C(=O)NCCCCCNCCCCN	13	450	283	68	–	–	–
CCCC(=O)N[C@@H](Cc1ccc(O)cc1)C(=O)NCCCCCNCCCCCCCN	10	1100	127	110	–	–	–
CCCC(=O)N[C@@H](Cc1ccc(O)cc1)C(=O)NCCCCCNCCCCCCCCCCN	26	1200	–	180	–	–	–
CCCC(=O)N[C@@H](Cc1ccc(O)cc1)C(=O)NCCCCCCCNCCCCCCN	–	–	45	208	–	–	–
CCCC(=O)N[C@@H](Cc1ccc(O)cc1)C(=O)NCCCNCCCCCCCCN	–	–	248	350	–	–	–
CCCC(=O)N[C@@H](Cc1ccc(O)cc1)C(=O)NCCCCCCNCCCCCCN	–	–	270	685	–	–	–
CCCC(=O)N[C@@H](Cc1ccc(O)cc1)C(=O)NCCCNCCCCCCN	–	–	547	126	–	–	–
CCCC(=O)N[C@@H](Cc1ccc(O)cc1)C(=O)NCCCCCCCCCNCCN	–	–	122	410	–	–	–
CCCC(=O)N[C@@H](Cc1ccc(O)cc1)C(=O)NCCCCCNCCCCCCCCCN	65	5000	798	450	–	–	–
CCCC(=O)N[C@@H](Cc1ccc(O)cc1)C(=O)NCCCCCCCCNCCCN	–	–	39	65	–	–	–
CCCC(=O)N[C@@H](Cc1ccc(O)cc1)C(=O)NCCCCCCNCCCCCN	–	–	388	468	–	–	–
